Assay results: the Kinase Knowledgebase extract (Sharma et al. 2016)

Tests used:
EGFR (human) [1] = molecular target: EGFR (human) (UniProt P00533); conditions: sk-br-3
EGFR (human) [2] = molecular target: EGFR (human) (UniProt P00533); conditions: mda468
EGFR (human) [3] = molecular target: EGFR (human) (UniProt P00533); conditions: a431
EGFR (mice) = EGFR (mice) (UniProt P00533); conditions: swiss 3t3 fibroblast, dose or concentration not given here
Chain of EGFR (mice) (P00533 whole entry, looked up): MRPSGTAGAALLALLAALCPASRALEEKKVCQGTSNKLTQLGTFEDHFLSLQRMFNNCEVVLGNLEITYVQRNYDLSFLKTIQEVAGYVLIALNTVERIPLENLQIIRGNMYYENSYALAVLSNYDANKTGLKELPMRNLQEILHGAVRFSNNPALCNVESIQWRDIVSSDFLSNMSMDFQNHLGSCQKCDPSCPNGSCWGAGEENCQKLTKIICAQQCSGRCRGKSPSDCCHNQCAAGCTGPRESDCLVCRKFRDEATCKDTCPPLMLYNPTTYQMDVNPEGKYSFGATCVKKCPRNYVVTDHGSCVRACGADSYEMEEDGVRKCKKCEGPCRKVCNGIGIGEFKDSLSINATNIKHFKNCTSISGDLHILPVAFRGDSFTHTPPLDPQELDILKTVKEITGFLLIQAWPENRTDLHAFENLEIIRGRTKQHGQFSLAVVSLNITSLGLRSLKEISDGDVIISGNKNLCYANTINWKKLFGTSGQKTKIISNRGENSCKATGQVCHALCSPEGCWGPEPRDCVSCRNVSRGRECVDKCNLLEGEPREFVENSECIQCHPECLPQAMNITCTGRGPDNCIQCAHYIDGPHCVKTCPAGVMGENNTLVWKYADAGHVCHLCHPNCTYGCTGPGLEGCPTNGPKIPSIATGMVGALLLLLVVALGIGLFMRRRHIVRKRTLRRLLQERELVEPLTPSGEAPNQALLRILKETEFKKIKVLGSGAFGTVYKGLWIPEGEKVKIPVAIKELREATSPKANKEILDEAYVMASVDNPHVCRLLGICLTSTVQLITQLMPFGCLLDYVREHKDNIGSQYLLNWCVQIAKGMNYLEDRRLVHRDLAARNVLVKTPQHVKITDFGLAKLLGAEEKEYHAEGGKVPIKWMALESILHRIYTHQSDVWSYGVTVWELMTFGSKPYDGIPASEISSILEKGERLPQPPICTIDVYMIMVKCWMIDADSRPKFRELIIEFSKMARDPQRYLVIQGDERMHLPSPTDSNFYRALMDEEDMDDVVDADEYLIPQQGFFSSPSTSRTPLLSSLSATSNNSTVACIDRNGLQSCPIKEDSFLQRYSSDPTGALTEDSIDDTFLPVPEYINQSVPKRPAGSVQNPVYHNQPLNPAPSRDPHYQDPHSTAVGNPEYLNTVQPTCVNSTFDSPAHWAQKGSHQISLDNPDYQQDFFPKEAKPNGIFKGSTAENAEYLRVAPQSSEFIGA

Chain of EGFR (human) (P00533 whole entry, looked up): as above

| Structure (SMILES) | IC50 (EGFR (human) [1]) | other results |
| --- | --- | --- |
| c1ccc(CNc2ncnc3[nH]ccc23)cc1 | > 1000 nM | IC50 (EGFR (human) [3]): > 1000 nM |
| Nc1cc2ncnc(Nc3cccc([N+](=O)[O-])c3)c2cn1 | 1500 nM |  |
| Nc1ccc2ncnc(Nc3cccc(Br)c3)c2n1 | 2660 nM |  |
| Nc1cc2ncnc(Nc3cccc(Br)c3)c2cn1 | 800 nM |  |
| Fc1ccc2ncnc(Nc3cccc(Br)c3)c2n1 | > 10000 nM |  |
| Nc1cc2ncnc(NCc3ccccc3)c2cn1 |  | inhibition (EGFR (mice)): 5% |

Continued, in another order:

| IC50 (EGFR (human) [1]) | Structure (SMILES) | other results |
| --- | --- | --- |
| < 10 nM | CNc1cc2c(Nc3cccc(Br)c3)ncnc2cn1 | IC50 (EGFR (human) [2]): 3000 nM |
| 100 nM | CNc1ccc2ncnc(Nc3cccc(Br)c3)c2n1 |  |
| 71 nM | CN(C)c1ccc2ncnc(Nc3cccc(Br)c3)c2n1 |  |
| < 10 nM | NNc1ncc2c(NCc3ccccc3)ncnc2n1 | IC50 (EGFR (human) [3]): 124 nM |
| 39 nM | CN(C)c1cc2c(Nc3cccc(Br)c3)ncnc2cn1 | IC50 (EGFR (human) [2]): 12000 nM |
| < 10 nM | COc1cc2c(Nc3cccc(Br)c3)ncnc2cn1 |  |
